Measurements taken from ChEMBL document CHEMBL1154345, “Discovery of tricyclic 5,6-dihydro-1H-pyridin-2-ones as novel, potent, and orally bioavailable inhibitors of HCV NS5B polymerase” (Bioorg Med Chem Lett, 2009).

Tests used:
[1] = system: Hepatitis C virus; experiment: microbe, parasite or virus in culture; assay type: functional, organism-based, Hepacivirus hominis, subtype 1a, Huh-lunet; details: Hepatitis C virus, subtype 1a, Huh-lunet, 96 h
Description: Antiviral activity against HCV-1a infected in human Huh-lunet cells after 4 days by luciferase based replicon assay

[2] = system: Hepatitis C virus; experiment: microbe, parasite or virus in culture; assay type: functional, organism-based, Hepacivirus hominis, genotype 1b, Huh-luc/neo-ET; details: Hepatitis C virus, genotype 1b, Huh-luc/neo-ET, 72 h
Description: Antiviral activity against HCV-1b infected human Huh-luc/neo-ET replicon cells after 72 hrs by luciferase based replicon assay

[3] = Oral bioavailability in cynomolgus monkey at 1 mg/kg; assay type: ADME, organism-based, Macaca fascicularis; details: in vivo
[4] = Clearance in cynomolgus monkey at 1 mg/kg, iv; assay type: ADME, organism-based, Macaca fascicularis; design: dose 1 mg/kg, route intravenous; details: in vivo
[5] = rhesus monkey, microsomes, 5 µM
Description: (§1) Metabolic stability in monkey liver microsomes assessed as half life at 5 uM

[6] = rhesus monkey, microsomes, 1 h, 5 µM
Description: (§2) Metabolic stability in monkey liver microsomes assessed as compound remaining after 60 mins at 5 uM

[7] = system: Cynomolgus monkey; details: in vivo, po, 1 mg/kg
[8] = system: Cynomolgus monkey; details: in vivo, iv, 1 mg/kg
[9] = in vitro; details: human, t1/2
[10] = in vitro; details: human
Description: Metabolic stability in human liver microsomes assessed as compound remaining after 60 mins at 1 uM

[11] = in vitro; details: human, Caco-2
Description: Apparent permeability from apical side to basolateral side of human Caco-2 cells at 10 uM after 3 hrs

[12] = physchem; details: aqueous medium, pH 7.5
Description: Aqueous solubility at pH 7.5

[13] = Cytotoxicity against human HuH7 cells assessed as GAPDH release; assay type: cell-based, Huh-7
[14] = Oral bioavailability in cynomolgus monkey at 0.5 mg/kg; assay type: ADME, organism-based, Macaca fascicularis; details: in vivo
[15] = system: Cynomolgus monkey; experiment: AUC (0 to infinity) in cynomolgus monkey at 0.5 mg/kg, po; assay type: ADME, organism-based, Macaca fascicularis, Plasma; design: time infinity, dose 0.5 mg/kg, route oral; details: in vivo
[16] = system: Cynomolgus monkey; experiment: AUC (0 to infinity) in cynomolgus monkey at 0.5 mg/kg, iv; assay type: ADME, organism-based, Macaca fascicularis, Plasma; design: time infinity, dose 0.5 mg/kg, route intravenous; details: in vivo
[17] = Clearance in cynomolgus monkey at 0.5 mg/kg, iv; assay type: ADME, organism-based, Macaca fascicularis; design: dose 0.5 mg/kg, route intravenous; details: in vivo
[18] = in vitro; details: rhesus monkey, microsomes
Description: as §1

[19] = in vitro; details: rhesus monkey, microsomes, Stability
Description: as §2

`CS(=O)(=O)Nc1ccc2c(c1)S(=O)(=O)N=C(C1=C(O)[C@@H]3[C@H]4CC[C@H](C4)[C@@H]3N(Cc3ccc(F)c(F)c3)C1=O)N2` gave an EC50 [1] of 37 nM, an EC50 [2] of 7 nM and a bioavailability [3] of 45%. It also gave a clearance [4] of 0.37 mL/min/kg, a t1/2 [5] of 1 h and a Stability [6] of 95%. It also gave an AUC [7] of 20300 ng·h/mL, an AUC [8] of 44800 ng·h/mL and a half-life at 1 µM ([9]; liver microsomes) greater than 1 h. It also gave a remaining at 1 h, 1 µM ([10]; liver microsomes) of 100%, a Papp A→B at 3 h, 10 µM [11] of 1.05 ×10⁻⁶ cm/s and a solubility [12] greater than 100 µM.

Compound `CS(=O)(=O)Nc1ccc2c(c1)S(=O)(=O)N=C(C1=C(O)[C@H]3[C@H]4CC[C@H](C4)[C@H]3N(Cc3ccc(F)cc3)C1=O)N2` has an EC50 [1] of 2500 nM, an EC50 [2] of 270 nM and a CC50 [13] greater than 33000 nM. The bioavailability [14] was 26%, the AUC [15] was 409 ng·h/mL and the AUC [16] was 1570 ng·h/mL. For the same compound, the clearance [17] was 5.7 mL/min/kg, the half-life at 1 µM ([9]; microsomes) was greater than 1 h and the remaining at 1 h, 1 µM ([10]; microsomes) was 75%. It also gave a half-life at 5 µM [18] greater than 1 h and a remaining at 1 h, 5 µM [19] of 95%.
